Results reported in patent US12655116B2, “Substituted isophthalic acid diamides” (Bayer Aktiengesellschaft, priority 2020, dated 2026).

Key:
[1] = tested on: AMARE; assay: Pre-emergence herbicidal action against AMARE; assay type: in vivo, Amaranthus retroflexus; details: Amaranthus retroflexus, 504 h, 100% = plants have died, 0% = like control plants
How it was run: (§1)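 Seeds sown in sandy loam, soil-covered; compound sprayed on soil surface pre-emergence. Application: WP/EC, 600–800 l/ha, 0.2% wetting agent. Readout: visual % damage at 3 weeks.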

[2] = tested on: ALOMY; assay: Pre-emergence herbicidal action against ALOMY; assay type: in vivo, Alopecurus myosuroides; details: Alopecurus myosuroides, 504 h, pre-emergence
How it was run: as §1

[3] = tested on: SETVI; assay: Pre-emergence herbicidal action against SETVI; assay type: in vivo, Setaria viridis; details: Setaria viridis, 504 h
How it was run: as §1

[4] = tested on: VIOTR; assay: Post-emergence herbicidal action against VIOTR; assay type: in vivo, Viola tricolor; details: Viola tricolor, 504 h
How it was run: (§2)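 Sandy loam, greenhouse; treatment 2–3 weeks after sowing, one-leaf stage. Aqueous suspension or emulsion from WP/EC sprayed on foliage (600–800 l/ha, 0.2% wetting agent). Readout: visual % action, ~3 weeks.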

[5] = tested on: POLCO; assay: Pre-emergence herbicidal action against POLCO; assay type: in vivo, Polygonum convolvulus; details: Fallopia convolvulus, 504 h
How it was run: as §1

[6] = tested on: MATIN; assay: Pre-emergence herbicidal action against MATIN; assay type: in vivo, Matricaria inodora; details: Tripleurospermum inodorum, 504 h
How it was run: as §1

[7] = tested on: VERPE; assay: Pre-emergence herbicidal action against VERPE; assay type: in vivo, Veronica persica; details: Veronica persica, 504 h, dosage 320 g/ha
How it was run: as §1

[8] = tested on: STEME; assay: Pre-emergence herbicidal action against STEME; assay type: in vivo, Stellaria media; details: Stellaria media, 504 h
How it was run: as §1

[9] = tested on: LOLRI; assay: Post-emergence herbicidal action against LOLRI; assay type: in vivo, Lolium rigidum; details: Lolium rigidum, 504 h
How it was run: as §2

[10] = tested on: AVEFA; assay: Pre-emergence herbicidal action against AVEFA; assay type: in vivo, Avena fatua; details: Avena fatua, 504 h, pre-emergence
How it was run: as §1

[11] = tested on: POLCO; assay: Post-emergence herbicidal action against POLCO; assay type: in vivo, Polygonum convolvulus; details: Fallopia convolvulus, 504 h, dosage 80 g/ha
How it was run: as §2

[12] = tested on: VERPE; assay: Post-emergence herbicidal action against VERPE; assay type: in vivo, Veronica persica; details: Veronica persica, 504 h
How it was run: as §2

[13] = tested on: AMARE; assay: Post-emergence herbicidal action against AMARE; assay type: in vivo, Amaranthus retroflexus; details: Amaranthus retroflexus, 504 h, visual assessment about 3 weeks after treatment, 100% = plants have died, 0% = like control plants
How it was run: as §2

[14] = tested on: STEME; assay: Post-emergence herbicidal action against STEME; assay type: in vivo, Stellaria media; details: Stellaria media, 504 h
How it was run: as §2

[15] = tested on: ECHCG; assay: Pre-emergence herbicidal action against ECHCG; assay type: in vivo, Echinochloa crus-galli; details: Echinochloa crus-galli, 504 h
How it was run: as §1

[16] = tested on: ECHCG; assay: Post-emergence herbicidal action against ECHCG; assay type: in vivo, Echinochloa crus-galli; details: Echinochloa crus-galli, 504 h
How it was run: as §2

[17] = tested on: MATIN; assay: Post-emergence herbicidal action against MATIN; assay type: in vivo, Matricaria inodora; details: Tripleurospermum inodorum, 504 h
How it was run: as §2

[18] = tested on: HORMU; assay: Post-emergence herbicidal action against HORMU; assay type: in vivo, Hordeum murinum; details: Hordeum murinum, 504 h
How it was run: as §2

[19] = tested on: AVEFA; assay: Post-emergence herbicidal action against AVEFA; assay type: in vivo, Avena fatua; details: Avena fatua, 504 h, visual assessment about 3 weeks after treatment, 100% = plants have died, 0% = like control plants
How it was run: as §2

[20] = tested on: VIOTR; assay: Pre-emergence herbicidal action against VIOTR; assay type: in vivo, Viola tricolor; details: Viola tricolor, 504 h
How it was run: as §1

[21] = tested on: SETVI; assay: Post-emergence herbicidal action against SETVI; assay type: in vivo, Setaria viridis; details: Setaria viridis, 504 h
How it was run: as §2

[22] = tested on: ALOMY; assay: Post-emergence herbicidal action against ALOMY; assay type: in vivo, Alopecurus myosuroides; details: Alopecurus myosuroides, 504 h, visual assessment about 3 weeks after treatment vs untreated controls
How it was run: as §2

[23] = tested on: HORMU; assay: Pre-emergence herbicidal action against HORMU; assay type: in vivo, Hordeum murinum; details: Hordeum murinum, 504 h, pre-emergence
How it was run: as §1

[24] = 20 g/ha, scored visually after 3 weeks, 100% = plants have died, 0% = like control plants
[25] = 320 g/ha, scored visually after 3 weeks, 100% = plants have died, 0% = like control plants

For CCn1nnnc1NC(=O)c1ccc(C(F)(F)F)c(C(=O)NC)c1Cl [Example 2-129], the pest or weed control at 20 g/ha ([1]; 20 g/ha, scored visually after 3 weeks vs untreated controls) was 100%, the pest or weed control at 80 g/ha ([1]; 80 g/ha, scored visually after 3 weeks vs untreated controls) was 100% and the pest or weed control at 320 g/ha ([1]; 320 g/ha, scored visually after 3 weeks) was 100%. It also gave a pest or weed control at 80 g/ha ([2]; 80 g/ha, scored visually after 3 weeks vs untreated controls (100% = plants have died, 0% = like control plants)) of 100%, a pest or weed control at 20 g/ha [2, 24] of 90% and a pest or weed control at 320 g/ha [2, 25] of 100%. The pest or weed control at 20 g/ha ([3]; dosage 20 g/ha) was 100%, the pest or weed control at 80 g/ha ([3]; dosage 80 g/ha) was 100% and the pest or weed control at 320 g/ha ([3]; dosage 320 g/ha) was 100%. It also gave a pest or weed control at 5 g/ha ([4]; 5 g/ha) of 80%, a pest or weed control at 20 g/ha ([4]; 20 g/ha) of 100% and a pest or weed control at 80 g/ha ([4]; 80 g/ha) of 100%. The pest or weed control at 20 g/ha ([5]; dosage 20 g/ha) was 100%, the pest or weed control at 80 g/ha ([5]; dosage 80 g/ha) was 100% and the pest or weed control at 320 g/ha ([5]; dosage 320 g/ha) was 100%. The pest or weed control at 20 g/ha ([6]; dosage 20 g/ha) was 100%, the pest or weed control at 80 g/ha ([6]; dosage 80 g/ha) was 100% and the pest or weed control at 320 g/ha ([6]; dosage 320 g/ha) was 100%. For the same compound, the pest or weed control at 320 g/ha [7] was 100%, the pest or weed control at 20 g/ha ([8]; dosage 20 g/ha) was 80% and the pest or weed control at 80 g/ha ([8]; dosage 80 g/ha) was 80%. It also gave a pest or weed control at 320 g/ha ([8]; dosage 320 g/ha) of 100%, a pest or weed control at 20 g/ha ([9]; dosage 20 g/ha) of 100% and a pest or weed control at 80 g/ha ([9]; dosage 80 g/ha) of 100%. For the same compound, the pest or weed control at 80 g/ha ([10]; 80 g/ha) was 100%, the pest or weed control at 20 g/ha [10, 24] was 100% and the pest or weed control at 320 g/ha [10, 25] was 100%. The pest or weed control at 80 g/ha [11] was 100%, the pest or weed control at 20 g/ha ([12]; 20 g/ha) was 80% and the pest or weed control at 80 g/ha ([12]; 80 g/ha) was 90%. For the same compound, the pest or weed control at 20 g/ha ([13]; 20 g/ha) was 100%, the pest or weed control at 80 g/ha ([13]; 80 g/ha) was 100% and the pest or weed control at 20 g/ha ([14]; 20 g/ha) was 100%. The pest or weed control at 80 g/ha ([14]; 80 g/ha) was 100%, the pest or weed control at 5 g/ha ([14]; dosage 5 g/ha) was 100% and the pest or weed control at 80 g/ha ([15]; 80 g/ha) was 100%. For the same compound, the pest or weed control at 320 g/ha ([15]; 320 g/ha) was 100%, the pest or weed control at 20 g/ha ([16]; dosage 20 g/ha) was 100% and the pest or weed control at 80 g/ha ([16]; dosage 80 g/ha) was 100%. It also gave a pest or weed control at 5 g/ha ([17]; dosage 5 g/ha) of 80%, a pest or weed control at 20 g/ha ([17]; dosage 20 g/ha) of 100% and a pest or weed control at 80 g/ha ([17]; dosage 80 g/ha) of 100%. It also gave a pest or weed control at 5 g/ha ([18]; dosage 5 g/ha) of 80%, a pest or weed control at 20 g/ha ([18]; dosage 20 g/ha) of 90% and a pest or weed control at 80 g/ha ([18]; dosage 80 g/ha) of 100%. For the same compound, the pest or weed control at 5 g/ha ([19]; 5 g/ha) was 100%, the pest or weed control at 20 g/ha ([19]; 20 g/ha) was 100% and the pest or weed control at 80 g/ha ([19]; 80 g/ha) was 100%. The pest or weed control at 20 g/ha ([20]; dosage 20 g/ha) was 100%, the pest or weed control at 80 g/ha ([20]; dosage 80 g/ha) was 100% and the pest or weed control at 320 g/ha ([20]; dosage 320 g/ha) was 100%. The pest or weed control at 5 g/ha ([21]; dosage 5 g/ha) was 100%, the pest or weed control at 20 g/ha ([21]; dosage 20 g/ha) was 100% and the pest or weed control at 80 g/ha ([21]; dosage 80 g/ha) was 100%. It also gave a pest or weed control at 5 g/ha ([22]; dosage 5 g/ha) of 100%, a pest or weed control at 20 g/ha ([22]; dosage 20 g/ha) of 100% and a pest or weed control at 80 g/ha ([22]; dosage 80 g/ha) of 100%. It also gave a pest or weed control at 80 g/ha ([23]; 80 g/ha) of 90% and a pest or weed control at 320 g/ha ([23]; 320 g/ha) of 100%.
